Type in all cases: cell-based
One experiment relates to D. immitis L4 larvae. The experiment is described as follows: Dirofilaria immitis, L4 Stage (DiL4) In Vitro Assay. The following applies: for minimal effective concentration: Dirofilaria immitis, 72 h, read-out: DiL4 MED, Minimum Effective Dose, D. immitis L4 larvae motility, in vitro; for DiMf/DiL4: larval stage selectivity, ratio of DiMf MED to DiL4 MED.
Experiment [1] relates to third stage larvae of Haemonchus contortus. The experiment is described as follows: Haemonchus contortus, Larvae Stage 3 (HcL3) In Vitro Assay. The following applies: Haemonchus contortus, 96 h.
Experiment [2] deals with microfilariae of Dirofilaria immitis. The experiment is described as follows: Dirofilaria immitis, Microfilaria (DiMf) In Vitro Assay. The following applies: Dirofilaria immitis, 72 h, read-out: DiMf MED, Minimum Effective Dose, D. immitis microfilariae motility, in vitro.
[3] abbreviates: read-out: HcL3 MED, Haemonchus contortus third stage larvae in vitro, class mark appended to the Ex # in Table 3.
Setting [4] is: read-out: HcL3 MED, Minimum Effective Dose, H. contortus third stage larvae, approximately 96 hours.
The mark [5] stands for this setting: read-out: HcL3 MED, approximately 96 hours incubation, multiple-resistant field isolate.

The structures appear in SMILES notation. Like-named read-outs stand apart in the source and are kept apart here. A value given as a limit tells only on which side of the number the result lay.

For eight compounds, minimal effective concentration and DiMf/DiL4 results are on record in US11771738B2 (Zoetis Services LLC, priority 2018, dated 2023).

Take `COc1ncccc1Cc1ccc(C[C@H]2OC(=O)[C@H](CC(C)C)N(C)C(=O)[C@@H](C)OC(=O)[C@H](CC(C)C)N(C)C(=O)[C@@H](Cc3ccc(Cc4cccnc4OC)cc3)OC(=O)[C@H](CC(C)C)N(C)C(=O)[C@@H](C)OC(=O)[C@H](CC(C)C)N(C)C2=O)cc1` [Example 3-31, (3S,6R,9S,12R,15S,18R,21S,24R)-3,9,15,21-tetraisobutyl-6,18-bis(4-((2-methoxypyridin-3-yl)methyl)benzyl)-4,10,12,16,22,24-hexamethyl-1,7,13,19-tetraoxa-4,10,16,22-tetraazacyclotetracosan-2,5,8,11,14,17,20,23-octaone]: the minimal effective concentration is 0.0002 µM in the experiment with D. immitis L4 larvae, 1 to 3.3 µM in experiment [1] (setting [3]), 2.4 µM in experiment [1] (setting [4]) and 0.005 µM in experiment [2]. For the same compound, the DiMf/DiL4 with D. immitis L4 larvae was found to be 25.
The matching figures for `Cc1ccsc1Cc1ccc(C[C@H]2OC(=O)[C@H](CC(C)C)N(C)C(=O)[C@@H](C)OC(=O)[C@H](CC(C)C)N(C)C(=O)[C@@H](Cc3ccc(Cc4sccc4C)cc3)OC(=O)[C@H](CC(C)C)N(C)C(=O)[C@@H](C)OC(=O)[C@H](CC(C)C)N(C)C2=O)cc1` [Example 3-44, (3S,6R,9S,12R,15S,18R,21S,24R)-3,9,15,21-tetraisobutyl-4,6,10,16,18,22-hexamethyl-12,24-bis(4-((3-methylthiophen-2-yl)methyl)benzyl)-1,7,13,19-tetraoxa-4,10,16,22-tetraazacyclotetracosan-2,5,8,11,14,17,20,23-octaone]: 0.0001 µM, 1 to 3.3 µM, 1.8 µM, 0.1 µM and 1000.
On the same counts, the results for `Cc1cc(Cc2ccc(C[C@H]3OC(=O)[C@H](CC(C)C)N(C)C(=O)[C@@H](C)OC(=O)[C@H](CC(C)C)N(C)C(=O)[C@@H](Cc4ccc(Cc5cc(C)nn5C)cc4)OC(=O)[C@H](CC(C)C)N(C)C(=O)[C@@H](C)OC(=O)[C@H](CC(C)C)N(C)C3=O)cc2)n(C)n1` [Example 3-49, (3S,6R,9S,12R,15S,18R,21S,24R)-6,18-bis(4-((1,3-dimethyl-1H-pyrazol-5-yl)methyl)benzyl)-3,9,15,21-tetraisobutyl-4,10,12,16,22,24-hexamethyl-1,7,13,19-tetraoxa-4,10,16,22-tetraazacyclotetracosan-2,5,8,11,14,17,20,23-octaone] are 0.001 µM, 1 to 3.3 µM, 3.3 µM, 0.005 µM and 5.
Regarding `CC(C)C[C@H]1C(=O)O[C@H](Cc2ccc(Cc3occc3C#N)cc2)C(=O)N(C)[C@@H](CC(C)C)C(=O)O[C@H](C)C(=O)N(C)[C@@H](CC(C)C)C(=O)O[C@H](Cc2ccc(Cc3occc3C#N)cc2)C(=O)N(C)[C@@H](CC(C)C)C(=O)O[C@H](C)C(=O)N1C` [Example 3-50, 2,2′-(((((2R,5S,8R,11 S,14R,17S,20R,23S)-5,11,17,23-tetraisobutyl-4,8,10,16,20,22-hexamethyl-3,6,9,12,15,18,21,24-octaoxo-1,7,13,19-tetraoxa-4,10,16,22-tetraazacyclotetracosane-2,14-diyl)bis(methylene))bis(4,1-phenylene))bis(methylene))bis(furan-3-carbonitrile)], the minimal effective concentration in the experiment on D. immitis L4 larvae was 0.0001 µM; in experiment [1] (setting [3]) it was < 1 µM; in experiment [1] (setting [4]), 0.3 µM; in experiment [1] (setting [5]) it was ≤ 1 µM; in experiment [2] it was 0.001 µM. Further, in the experiment on D. immitis L4 larvae, the DiMf/DiL4 was determined as 10.
For `CC(C)C[C@H]1C(=O)O[C@H](Cc2ccc(Cc3ccsc3)cc2)C(=O)N(C)[C@@H](CC(C)C)C(=O)O[C@H](C)C(=O)N(C)[C@@H](CC(C)C)C(=O)O[C@H](Cc2ccc(Cc3ccsc3)cc2)C(=O)N(C)[C@@H](CC(C)C)C(=O)O[C@H](C)C(=O)N1C` [Example 3-56, (3S,6R,9S,12R,15S,18R,21S,24R)-3,9,15,21-tetraisobutyl-4,6,10,16,18,22-hexamethyl-12,24-bis(4-(thiophen-3-ylmethyl)benzyl)-1,7,13,19-tetraoxa-4,10,16,22-tetraazacyclotetracosan-2,5,8,11,14,17,20,23-octaone], the minimal effective concentration with D. immitis L4 larvae was 0.0005 µM; in experiment [1] (setting [3]), < 1 µM; in experiment [1] (setting [4]) it was 0.5 µM; in experiment [1] (setting [5]), ≤ 1 µM; in experiment [2], 0.1 µM. Besides, the DiMf/DiL4 with D. immitis L4 larvae is reported as 200.
Take `CC(C)C[C@H]1C(=O)O[C@H](Cc2ccc(Cc3cocn3)cc2)C(=O)N(C)[C@@H](CC(C)C)C(=O)O[C@H](C)C(=O)N(C)[C@@H](CC(C)C)C(=O)O[C@H](Cc2ccc(Cc3cocn3)cc2)C(=O)N(C)[C@@H](CC(C)C)C(=O)O[C@H](C)C(=O)N1C` [Example 3-57, (3S,6R,9S,12R,15S,18R,21S,24R)-3,9,15,21-tetraisobutyl-4,6,10,16,18,22-hexamethyl-12,24-bis(4-(oxazol-4-ylmethyl)benzyl)-1,7,13,19-tetraoxa-4,10,16,22-tetraazacyclotetracosan-2,5,8,11,14,17,20,23-octaone]: the minimal effective concentration was 0.0003 µM in the experiment with D. immitis L4 larvae; < 1 µM in experiment [1] (setting [3]); 1 µM in experiment [1] (setting [4]); ≤ 1 µM in experiment [1] (setting [5]); 0.0003 µM in experiment [2]. For the same compound, the DiMf/DiL4 in the experiment with D. immitis L4 larvae was 1.
As to `CC(C)C[C@H]1C(=O)O[C@H](Cc2ccc(Cc3coc(C#N)c3)cc2)C(=O)N(C)[C@@H](CC(C)C)C(=O)O[C@H](C)C(=O)N(C)[C@@H](CC(C)C)C(=O)O[C@H](Cc2ccc(Cc3coc(C#N)c3)cc2)C(=O)N(C)[C@@H](CC(C)C)C(=O)O[C@H](C)C(=O)N1C` [Example 3-60, 4,4′-(((((2R,5S,8R,11 S,14R,17S,20R,23S)-5,11,17,23-tetraisobutyl-4,8,10,16,20,22-hexamethyl-3,6,9,12,15,18,21,24-octaoxo-1,7,13,19-tetraoxa-4,10,16,22-tetraazacyclotetracosane-2,14-diyl)bis(methylene))bis(4,1-phenylene))bis(methylene))bis(furan-2-carbonitrile)], the minimal effective concentration was 0.001 µM in the experiment on D. immitis L4 larvae, > 10 µM in experiment [1] (setting [4]) and 0.05 µM in experiment [2]. The DiMf/DiL4 in the experiment on D. immitis L4 larvae stood at 50.
As to `COc1cccc(Cc2ccc(C[C@H]3OC(=O)[C@H](CC(C)C)N(C)C(=O)[C@@H](C)OC(=O)[C@H](CC(C)C)N(C)C(=O)[C@@H](Cc4ccc(Cc5cccc(OC)n5)cc4)OC(=O)[C@H](CC(C)C)N(C)C(=O)[C@@H](C)OC(=O)[C@H](CC(C)C)N(C)C3=O)cc2)n1` [Example 3-69, (3S,6R,9S,12R,15S,18R,21S,24R)-3,9,15,21-tetraisobutyl-6,18-bis(4-((6-methoxypyridin-2-yl)methyl)benzyl)-4,10,12,16,22,24-hexamethyl-1,7,13,19-tetraoxa-4,10,16,22-tetraazacyclotetracosan-2,5,8,11,14,17,20,23-octaone], the minimal effective concentration was 0.0007 µM in the experiment with D. immitis L4 larvae; < 1 µM in experiment [1] (setting [3]); 0.5 µM in experiment [1] (setting [4]); ≤ 1 µM in experiment [1] (setting [5]); 0.03 µM in experiment [2]. For the same compound, in the experiment with D. immitis L4 larvae, the DiMf/DiL4 was determined as 42.9.
